Results as given in PMC2850566 (Biochemical pharmacology, 2010).
Where two headings read alike, the source gives them in different places.

Columns and labels:
human β2-AR = human β2-AR (Homo sapiens, UniProt P07550); details: plotted from previously reported ΔH° and TΔS°; cited from earlier work
rat cardiomyocyte [1] = details: read-out: EC50cardio; rat cardiomyocyte contractility; cited from earlier work
β2-AR = details: cardiomyocytes; cited from earlier work
rat cardiomyocyte [2] = assay: Rat cardiomyocyte contractility model; type: cell-based; details: read-out: EC50cardio, authors' unpublished data

Sequence of human β2-AR (P07550 whole entry): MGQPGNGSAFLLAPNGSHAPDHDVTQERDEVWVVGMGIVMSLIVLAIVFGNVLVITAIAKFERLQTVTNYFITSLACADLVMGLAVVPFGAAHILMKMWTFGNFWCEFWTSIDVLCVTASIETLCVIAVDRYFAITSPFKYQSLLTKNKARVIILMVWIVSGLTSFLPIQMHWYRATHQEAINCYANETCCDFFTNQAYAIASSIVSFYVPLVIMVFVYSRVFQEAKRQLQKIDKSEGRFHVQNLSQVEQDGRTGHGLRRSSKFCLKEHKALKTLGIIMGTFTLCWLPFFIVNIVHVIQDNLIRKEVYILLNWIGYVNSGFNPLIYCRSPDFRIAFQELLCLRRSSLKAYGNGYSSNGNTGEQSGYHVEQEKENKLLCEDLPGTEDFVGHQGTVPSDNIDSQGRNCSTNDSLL

SMILES	Quadrant in the TΔS° and ΔH° plot (human β2-AR)	EC50 (rat cardiomyocyte [1])	β2-AR coupling preference for G-proteins (β2-AR)	EC50 (rat cardiomyocyte [2])
CC(Cc1ccc(O)cc1)NCC(O)c1cc(O)cc(O)c1 (racemic) [rac-fenoterol]	enthalpy-entropy driven process	–	–	–
CC(Cc1ccc(O)cc1)NCC(O)c1cc(O)cc(O)c1 [(R,R')-fenoterol]	–	0.073 µM	preferentially activates Gs signaling	–
C[C@@H](Cc1ccc(O)cc1)NC[C@H](O)c1cc(O)cc(O)c1 [(R,S')-fenoterol]	–	0.575 µM	–	–
C[C@H](Cc1ccc(O)cc1)NC[C@@H](O)c1cc(O)cc(O)c1 [(S,R')-fenoterol]	–	2.34 µM	activates both Gs and Gi proteins	–
CC(Cc1ccc(O)cc1)NCC(O)c1cc(O)cc(O)c1 [(S,S')-fenoterol]	–	–	–	55 µM
